Data: patent US11607443B2, “Therapeutic peptides” (UNIVERSITE TOULOUSE III-PAUL SABATIER, priority 2016, dated 2023)

Assays:
mesenchymal stem cells = assay: Expression of osteoblast marker genes (iBSP, PTHR1, STMN2, OSTERIX) in mesenchymal stem cells by quantitative RT-PCR; format: cell-based, human; conditions: for osteoblast differentiation of mesenchymal stem cells: conclusion from increased expression of osteoblast marker genes
Experimental: The respective effects of miPEP 125a-1 and miPEP 145-2 on differentiation of mesenchymal stem cells were analyzed by measuring the expression of the iBSP, PTHR1, STMN2 and OSTERIX genes that correspond to markers of osteogenesis and of osteoblast differentiation (Chiellini et al., Biochem Biophys Res Commun, 374(1):64-8, 2008; Cordonnier et al., Tissue Eng, 17(3): 249-259, 2011).
The experiments were carried out with two fragments of 10 amino acids respectively corresponding to the N-terminal part of the miPEP 125a-1 (=miPEP//125a-1 fragment) and to the N-terminal part of the miPEP 145-2 (=fragment miPEP//145-2).
Mesenschymal stem cells from 4 different donors were cultured for 24 hours in PROLIF medium (αMEM+10% FCS) with or without miPEP//then for 3 days in DIF+BMP4 medium (αMEM+2% FCS+b-Glycerophosphate+Ascorbic acid+BMP4), DIF ΔBMP4 medium (αMEM+2% FCS+b-Glycerophosphate+Ascorbic acid) or PROLIF medium (αMEM+10% FCS), with or without miPEP//.
The expression of the iBSP, PTHR1, STMN2 and OSTERIX genes was then measured in mesenchymal stem cells cultured in the presence or absence of a miPEP*.
a. Composition of Culture Media • Proliferation medium (PROLIF): αMEM+10% FBS+1% P/S • Differentiation medium+BMP4 (DIF+BMP4): αMEM+2% FBS+1% P/S+βglycerophosphate (10 mM)+Ascorbic acid (50 μM)+BMP4 (50 ng/mL) • Differentiation medium without BMP4 (DIF ΔBMP4): αMEM+2% FBS+1% P/S+βglycerophosphate (10 mM)+Ascorbic acid (50 μM)
The miPEP//145-2 was synthesized by Smartbioscience and dissolved at 2 mM in water. The miPEP//125a-1 was synthesized by Smartbioscience and dissolved in water+0.1% ammonium.
The mesenchymal stem cells were seeded in 12-well plates at 70,000 cells/well in 1 mL of PROLIF medium. The cells were then incubated for 72 h at 37° C. in a humid atmosphere with 5% CO2.
After 72 hours of incubation, the cells were pre-treated with 100 μM of miPEP or “scramble” peptide diluted in PROLIF medium, and then incubated at 37° C. for 24 hours. In parallel, cells treated with PROLIF±water or water+0.1% ammonium medium were used as a negative control.
For 3 days, the cells were treated every 24 h with 100 μM of diluted miPEP either in DIF+BMP4 medium, or in DIF ΔBMP4 medium, or in PROLIF medium. Cells untreated or treated with water or water+0.1% ammonium were used as controls. The cells are incubated at 37° C.
After 3 days of treatment, the culture supernatants were removed, the cell mats were washed once with PBS, and then the plates were frozen at −80° C. until the total RNAs were extracted.
Total RNAs were extracted according to the supplier's recommendations with the miRNeasy microkit kit (Qiagen).
The RNAs were reverse transcribed with the High Capacity cDNA reverse transcription kit (Applied Biosystem). 600 ng of RNA were added to 2 μL of RT buffer (10×), 2 μL of Random primer (10×), 0.8 μL of dNTPs (25×), 0.5 μL of RNAse OUT (40 U/μL) and 1 μL of multiscribe reverse transcriptase (50 U/μL) in a total volume of 20 μL. The reverse transcription reaction was carried out at 25° C. for 10 min and then 42° C. for 2 h. The activity of the enzyme was stopped by incubating the mixture at 85° C. for 5 min.
The expression of osteoblastic transcription factors iBSP, PTHR1, STMN2 and OSTERIX was evaluated by quantitative RT-PCR with the SsoFast EvagGreen kit. For the RT-PCR reaction, 3 μL of […] diluted 1/8 were added to 1× of SsoFast EvaGreen, 10 μM of each primer and RNase free water in a final volume of 10 μL. The reaction was subjected to the following temperatures: 3 min pre-amplification at 95° C., 40 cycles of 10 sec at 95° C. and […] in a thermal cycler (CFX96 Real-time PCR detection system, Biorad). PPIA was used as a reference gene to normalize quantitative RT-PCR.
For all PCR reactions, two replicates were used for each biological sample.

miR16-1 = assay: Accumulation of miR16-1 in mesenchymal stem cells by RT-qPCR; format: cell-based, human; conditions: 10 μM for 3 h, MSCs from three patients, normalized to PPIA; FIG. 16
Experimental: The mesenchymal stem cells were treated with 10 μM of miPEP//15a-16-1-TAT, treated with 10 μM of control peptide (ScmiPEP//21-1) or untreated (NT) for 3 hours. The amount of miR16-1 precursor in cells has been measured by quantitative RT-PCR. The measurement of the amount of miR16-1 precursor was normalized with respect to the PPIA household gene. Analyzes and statistics were performed with the Mann-Withney test (p-value: * p<0.05; ** p<0.01 and *** p<0.001).
The effect of miPEP 15a-16-1 on miR16-1 accumulation was analyzed in mesenchymal stem cells (MSCs). The experiments were carried out with a fragment of 10 amino acids respectively corresponding to the N-terminal portion of the miPEP 15a-16-1 (=fragment miPEP//15 a-16-1).
MSCs from three different patients were treated with 10 μM of miPEP//15a-16-1 fused to TAT peptide (miPEP//15a-16-1-TAT) for 3 h, then the amount of miR16-1 was measured by RT-qPCR.
Peptides were synthesized by Smartbioscience and dissolved at 2 mM in water.
The MSCs were seeded in wells of 12-well plates at 72,900 cells per well under 1 mL of PROLIF medium. The cells were then incubated for 72 h at 37° C. in a humid atmosphere with 5% CO2. […]
The amount of miRNAs precursors in cells treated or not treated with miPEP was evaluated by quantitative RT-PCR with the SsoFast EvagGreen kit. […] PPIA was used as a reference gene to normalize quantitative RT-PCR. […]

Nude mice = assay: In vivo bone formation by subcutaneous implantation of MSCs + HA/β-TCP biomaterial in Nude mice
Experimental: For D. and F. conditions, mice also received regular injections (once a week) of either miPEP//125a-1 (D) or scramble miPEP (F) during the study. After 4 weeks, the mice are euthanized and the grafts were then isolated, fixed, included in methacrylate, cut and treated for histology. The cuts were scanned (NDPview) and bone formation (dark grey) is evaluated (A to F) and is also quantified (G) using the Fiji image analysis software and the total area of new bone is reported to the total area of the cut
For G, the y-axis indicates the percentage of bone formation and the statistical analyzes were performed with the paired t-test (p-value: * p<0.05; ** p<0.01 and *** p<0.001).
All experiments on animals were done in accordance with directive 2010/63/EU and after validation of protocols by the Animal Ethics Committee (Toulouse, N: 86/809 EEC). A total of 6-8 mice was used per group. The cells cultured osteo-induced or not according to the methods described elsewhere (see Example 1), were then suspended for 1 to 2 h in the culture medium also containing granules of biomaterials in the ratio of 2×10^6 cells/50 mg of biomaterial. These biomaterials were biphasic inorganic calcium phosphate (BCP), composed of hydroxyapatite (HA) and beta-tricalcium phosphate (β-TCP) in a ratio of 20/80, ranging in size from 0.5 to 1 mm (sold by Biomatlante, Vigneux de Bretagne, France). The porosity of these biomaterials (% vol) was 75±5% of pores of which 70% (0 to 10 μm), 20% (10 to 100 μm) and 10% (100 to 300 μm). They were sterilized by autoclaving.
The biomaterial alone has been implanted as a negative control. Female Nude mice (RjOrl: NMRI-Foxnnul/Foxnlnu) (Laboratoires Janvier, Saint-Berthevin, France) are generally anesthetized by inhalationn of isoflurane. Two implants (cells+biomaterials) are subcutaneously placed in the back of the mice on each side of the spine. After 4 weeks, the treated animals are sacrificed. The implants are then removed and fixed in a buffered 4% formalin solution. Some groups of mice will also receive regular injections (once a week) during the study either of the miPEP//125a-1 (SEQ ID NO: 11 752) or the control miPEP (scramble ScmiPEP//125a, SEQ ID NO: 11 758).
These implants were then decalcified in a solution of 4.13% EDTA/0.2% PFA in PBS for 96 hours at 50° C. using an automatic microwave for demineralization (KOS Histostation, Milestone Med. Corp. USA). The samples were dehydrated in ethanol and then butanol baths in an automatic dehydration apparatus (MicromMicrotech, Lyon, France). The samples were then immersed in paraphine (Histowax, Histolab, Gottenburg, Sweden). Fine sections ([…]) were made using a microtome (Leica RM2255, Leica Biosystems, Nanterre, France). The sections were stained by the Masson trichrome technique and the collagen in light green.
The photos were obtained by a scan of each cut (NanoZoomer, Hamamatsu, Photonics, Hamamatsu City, Shizuoka, Japan) and observed virtually (NDP view, Hamamatsu). The histomorphometry of the images was done using the ImageJ software and the neoformed bone percentage was calculated by explant area. 3 to 4 sections per explant were analyzed and quantified.

[1] = DIF ΔBMP4 medium, 100 μM miPEP, 4 days, FIGS. 7 and 9
[2] = DIF ΔBMP4 medium, 100 μM miPEP, 4 days, FIGS. 8 and 10
[3] = DIF+BMP4 medium, 100 μM miPEP, 4 days, FIGS. 4 and 6

| Substance | expression of the STMN2 gene (mesenchymal stem cells; [1]) | expression of the OSTERIX gene (mesenchymal stem cells; [2]) | expression of the STMN2 gene (mesenchymal stem cells; [3]) | expression of the STMN2 gene (mesenchymal stem cells; PROLIF medium, 100 μM miPEP, 4 days, FIG. 11) | osteoblast differentiation of mesenchymal stem cells (mesenchymal stem cells) | amount of miR 16-1 (miR16-1) | expression of the iBSP gene (mesenchymal stem cells; DIF+BMP4 medium, 100 μM miPEP, 4 days, FIG. 2) | expression of the PTHR1 gene (mesenchymal stem cells; DIF+BMP4 medium, 100 μM miPEP, 4 days, FIG. 3) | expression of the OSTERIX gene (mesenchymal stem cells; DIF+BMP4 medium, 100 μM miPEP, 4 days, FIG. 5) | bone formation, quantified neoformed bone (Nude mice; MSCs only pre-treated in vitro (C) versus untreated MSCs (B), p=0.0241, FIG. 17G) | bone formation, quantified neoformed bone (Nude mice; MSCs pre-treated in culture (C) versus MSCs pre-treated with scramble miPEP (E), p=0.0499, FIG. 17G) | bone formation, quantified neoformed bone (Nude mice; MSCs pre-treated in vitro and then in vivo (D) versus untreated MSCs (B), p=0.0203, FIG. 17G) | bone formation, qualitative (histology images) (Nude mice; MSCs pre-treated with miPEP (FIG. 17C-D) versus scramble miPEP (FIG. 17E-F), 4 weeks) | ability of human MSCs to form bone in vivo (Nude mice; MSCs previously treated in vitro) | effect of in vivo injection of the miPEP on the induction of bone formation (Nude mice; pre-treated MSCs plus weekly injection (D) versus MSCs only pre-treated (C), FIG. 17G) |
| --- | --- | --- | --- | --- | --- | --- | --- | --- | --- | --- | --- | --- | --- | --- | --- |
| MVGLNPPLWQ [miPEP//145-2, fragment of 10 amino acids corresponding to the N-terminal part of the miPEP 145-2] | increases | increases | increases | increases | promote osteoblast differentiation | – | – | – | – | – | – | – | – | – | – |
| MFKHRFFYMH-YGRKKRRQRRR [miPEP//15a-16-1-TAT] | – | – | – | – | – | increase | – | – | – | – | – | – | – | – | – |
| MSLCLSPSLT [miPEP//125a-1, fragment of 10 amino acids corresponding to the N-terminal part of the miPEP 125a-1] | increases | increases | increases | – | promote osteoblast differentiation | – | increases | increases | increases | significantly higher | significantly more bone formation | significantly higher | greater | increased | without consequence |
